Measured values as given in patent publication EP4310072A1, “ULTRAVIOLET ABSORBER, COMPOSITION, COSMETIC PRODUCT, AND PROCESS FOR PREPARING COSMETIC PRODUCT” (MFCI (Huanggang) Co., Ltd., priority 2021, dated 2023).

How the values were obtained:
Assay type in all cases: physicochemical
[1] = Second dissolution experiment: sample stirred into the oil phase of an SPF 25 sunscreen oil, 6% DHHB; conditions: for Sample dissolution time: added concentration 6%, 25°C, stirring rate 150 r/min, oil phase; for increase rate of dissolution time: added concentration 6% versus 3%
Experimental: (§1) In this dissolution experiment, the agglomeration degree of the ultraviolet absorbers in the above examples and comparative examples was evaluated, and each sample of a certain mass was added into an oil phase and stirred at room temperature (25°C) at a stirring rate of 150 r/min for dissolution. The dissolution experiment was carried out on raw materials for preparation of a sunscreen oil with an SPF value of 25. Table 15 Raw material table
Except that DHHB is a solid, all other components are liquid oils. A production process includes: sequentially adding various components into an oil pot, and enabling a stirring function until the components are completely dissolved. Table 16 Sample property test result table

[2] = Particle size testing by laser diffraction (Malvern MS2000 laser particle size analyzer, dispersant water); conditions: for αd5: Vd5/Vd100, distribution coefficient of particles with a particle size of 5 µm; for αd10: Vd10/Vd100, distribution coefficient of 10 µm particles; for Consistency / Span (β) / Specific surface area / Surface area-average particle size D[3,2] / Volume-average particle size D[4,3]: laser diffraction, dispersant water; for d(0.9): maximum particle size, cumulative distribution 90%; for d(0.5): median particle size, cumulative distribution 50%; for d(0.1): minimum particle size, cumulative distribution 10%; for Particle size distribution d(0.9) (integer) / Particle size distribution d(0.1) (integer): rounded to integer, Tables 14 and 16
Experimental: The particle size distribution and characteristics of the ultraviolet absorber described herein, such as the minimum particle size d(0.1), the d(0.9) and the consistency are determined by a laser diffraction method, and determination conditions are as follows: • particle size analyzer: Malvern MS2000 laser particle size analyzer; • name of an injector: Hydro 2000MU (A); • analysis mode: general; • particle size range: 0.02-2000 µm; • name of a dispersant: water.

[3] = First dissolution experiment: sample stirred into the oil phase of an SPF 25 sunscreen oil, 3% DHHB; conditions: added concentration 3%, 25°C, stirring rate 150 r/min
Experimental: as §1, with “with a sun protection factor (SPF)” for “with an SPF”, “Table 13” for “Table 15”
Except that DHHB is a solid, all other components are liquid oils. A production process includes: sequentially adding various components into an oil pot, and enabling a stirring function until the components are completely dissolved. Table 14 Sample property test result table

Structure (SMILES) | Sample dissolution time [1] [min] | difference between D[3,2] and D[4,3] [2] [µm] | αd5 [2] | αd10 [2] | Consistency [2] | Span (β) [2] | Specific surface area [2] [m^2/g] | Surface area-average particle size D[3,2] [2] [µm] | Volume-average particle size D[4,3] [2] [µm] | d(0.9) [2] [µm] | d(0.5) [2] [µm] | d(0.1) [2] [µm] | Particle size distribution d(0.9) (integer) [2] [µm] | Particle size distribution d(0.1) (integer) ([2]; in µm) | Sample dissolution time [3] [min] | increase rate of dissolution time [1] | Particle size distribution d(0.1) (integer) [2]
CCCCCCOC(=O)c1ccccc1C(=O)c1ccc(N(CC)CC)cc1O [Example 2, 2-(4-N,N-diethylamino-2-hydroxybenzoyl) hexyl benzoate] | < 5 | 8.865 | 0.006 | 0.104 | 0.578 | 1.869 | 0.325 | 18.463 | 27.328 | 51.867 | 22.470 | 9.862 | 52 | 10 | < 5 | – | –
CCCCCCOC(=O)c1ccccc1C(=O)c1ccc(N(CC)CC)cc1O [Example 1, 2-(4-N,N-diethylamino-2-hydroxybenzoyl) hexyl benzoate] | – | 11.727 | 0.0160 | 0.111 | 0.638 | 2.008 | 0.331 | 18.113 | 29.840 | 57.575 | 23.866 | 9.647 | 58 | – | – | – | –
CCCCCCOC(=O)c1ccccc1C(=O)c1ccc(N(CC)CC)cc1O [Comparative Example 1] | 208 | 128.616 | 0.005 | 0.122 | 2.44 | 10.995 | 0.258 | 23.263 | 151.879 | 518.950 | 51.970 | 10.517 | 519 | 11 | 151 | about 38% | –
CCCCCCOC(=O)c1ccccc1C(=O)c1ccc(N(CC)CC)cc1O [Comparative Example 2, reference compound] | 202 | – | – | – | – | – | – | – | – | – | – | – | 1000 | – | 134 | about 50% | 850 (±20)
CCCCCCOC(=O)c1ccccc1C(=O)c1ccc(N(CC)CC)cc1O [Example 3, 2-(4-N,N-diethylamino-2-hydroxybenzoyl) hexyl benzoate] | < 5 | 17.543 | 0.019 | 0.107 | 0.691 | 2.23 | 0.295 | 20.356 | 37.899 | 77.626 | 30.410 | 9.803 | 78 | 10 | < 5 | – | –
CCCCCCOC(=O)c1ccccc1C(=O)c1ccc(N(CC)CC)cc1O [Example 5, 2-(4-N,N-diethylamino-2-hydroxybenzoyl) hexyl benzoate] | < 5 | 21.881 | 0.037 | 0.095 | 0.596 | 1.944 | 0.281 | 21.390 | 43.271 | 43.271 | 21.390 | 10.747 | 43 | 10 | < 5 | – | –
CCCCCCOC(=O)c1ccccc1C(=O)c1ccc(N(CC)CC)cc1O [Example 4, 2-(4-N,N-diethylamino-2-hydroxybenzoyl) hexyl benzoate] | < 5 | 11.215 | 0.002 | 0.074 | 0.62 | 1.998 | 0.284 | 21.149 | 32.364 | 62.903 | 25.939 | 11.066 | 63 | 11 | < 5 | – | –
